Experimental data taken from patent US20240166635A1, “AMINOHETEROARYL KINASE INHIBITORS” (Anrui Biomedical Technology (Guangzhou) Co.,Ltd., priority 2020, published 2024).

What was measured:
Type in all cases: biochemical
CDK1/CyclinB = CDK1/CyclinB (Homo sapiens (Human), UniProt P06493); test: CDK1/CyclinB kinase inhibitory activity (Caliper mobility shift); conditions: read-out: CDK1/Cyclin B1 IC50
CDK2/CyclinE1 = CDK2/CyclinE1 (Homo sapiens (Human), UniProt P24941); test: CDK2/CyclinE1 kinase inhibitory activity (Caliper mobility shift); conditions: read-out: CDK2/Cyclin El IC50
CDK9/CyclinT1 = CDK9/CyclinT1 (Homo sapiens (Human), UniProt P50750); test: CDK9/CyclinT1 kinase inhibitory activity (Caliper mobility shift); conditions: read-out: CDK9/Cyclin T1 IC50
Sequence of CDK9/CyclinT1 (P50750 whole entry): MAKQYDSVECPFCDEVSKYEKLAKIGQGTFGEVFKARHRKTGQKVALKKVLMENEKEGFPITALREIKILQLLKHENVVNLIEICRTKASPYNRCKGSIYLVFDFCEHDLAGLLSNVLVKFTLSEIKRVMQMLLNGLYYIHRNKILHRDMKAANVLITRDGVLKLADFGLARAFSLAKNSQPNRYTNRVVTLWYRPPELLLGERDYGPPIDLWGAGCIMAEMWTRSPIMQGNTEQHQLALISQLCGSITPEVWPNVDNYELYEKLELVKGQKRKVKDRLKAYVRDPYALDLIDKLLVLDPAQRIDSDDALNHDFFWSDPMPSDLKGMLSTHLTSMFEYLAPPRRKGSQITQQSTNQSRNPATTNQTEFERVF
Sequence of CDK9/CyclinT1 (O60563 whole entry partner): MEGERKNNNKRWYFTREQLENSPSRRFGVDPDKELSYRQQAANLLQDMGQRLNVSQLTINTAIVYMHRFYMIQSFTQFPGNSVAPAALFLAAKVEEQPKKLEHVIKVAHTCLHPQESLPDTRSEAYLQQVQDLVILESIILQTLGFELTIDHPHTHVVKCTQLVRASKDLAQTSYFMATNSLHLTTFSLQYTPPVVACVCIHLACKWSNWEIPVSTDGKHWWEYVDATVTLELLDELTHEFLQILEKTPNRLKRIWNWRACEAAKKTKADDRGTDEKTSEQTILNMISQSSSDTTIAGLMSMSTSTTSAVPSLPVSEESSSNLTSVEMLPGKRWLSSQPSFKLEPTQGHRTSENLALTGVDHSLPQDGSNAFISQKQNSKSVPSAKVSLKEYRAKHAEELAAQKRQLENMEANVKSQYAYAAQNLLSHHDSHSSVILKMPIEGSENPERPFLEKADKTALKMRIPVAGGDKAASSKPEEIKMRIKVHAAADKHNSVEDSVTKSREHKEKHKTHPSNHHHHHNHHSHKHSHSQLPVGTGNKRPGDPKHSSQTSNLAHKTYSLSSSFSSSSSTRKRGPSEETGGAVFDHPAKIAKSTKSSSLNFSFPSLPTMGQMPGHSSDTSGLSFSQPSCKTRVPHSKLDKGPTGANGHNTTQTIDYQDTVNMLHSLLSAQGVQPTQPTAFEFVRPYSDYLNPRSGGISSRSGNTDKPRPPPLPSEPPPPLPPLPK

Sequence of CDK1/CyclinB (P06493 whole entry): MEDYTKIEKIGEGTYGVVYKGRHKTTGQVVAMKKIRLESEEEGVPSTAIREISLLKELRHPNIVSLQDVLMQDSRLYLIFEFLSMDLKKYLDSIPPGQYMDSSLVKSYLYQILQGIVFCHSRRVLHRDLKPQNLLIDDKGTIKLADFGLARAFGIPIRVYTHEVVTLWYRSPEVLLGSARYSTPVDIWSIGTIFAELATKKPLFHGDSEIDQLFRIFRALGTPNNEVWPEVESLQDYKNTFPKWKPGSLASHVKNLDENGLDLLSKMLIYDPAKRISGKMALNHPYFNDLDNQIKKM
Sequence of CDK1/CyclinB (P14635 whole entry partner): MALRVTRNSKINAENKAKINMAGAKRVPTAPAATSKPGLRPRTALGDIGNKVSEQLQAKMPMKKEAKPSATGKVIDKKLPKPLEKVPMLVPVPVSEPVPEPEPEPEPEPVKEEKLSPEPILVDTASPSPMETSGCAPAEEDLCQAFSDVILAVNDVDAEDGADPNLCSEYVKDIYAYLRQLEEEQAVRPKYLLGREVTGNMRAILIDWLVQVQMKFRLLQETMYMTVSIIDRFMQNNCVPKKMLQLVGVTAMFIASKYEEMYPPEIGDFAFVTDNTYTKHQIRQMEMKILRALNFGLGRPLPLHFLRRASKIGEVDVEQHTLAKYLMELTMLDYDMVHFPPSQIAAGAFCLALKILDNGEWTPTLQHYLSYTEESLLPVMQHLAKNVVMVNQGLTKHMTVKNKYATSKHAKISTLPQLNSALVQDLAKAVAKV

| IC50 (CDK1/CyclinB) [nM] | IC50 (CDK2/CyclinE1) [nM] | IC50 (CDK9/CyclinT1) [nM] | Structure (SMILES) |
| --- | --- | --- | --- |
| 10 to 100 | < 10 | 100 to 1000 | N#Cc1cnc(Nc2ccc(S(N)(=O)=O)cc2)nc1OCC1CCCC1O (single isomer, unassigned) [Example 19a] |
| ≥ 1000 | 10 to 100 | ≥ 1000 | [2H]C([2H])([2H])NS(=O)(=O)c1ccc(Nc2ncc(CC)c(OC3COCCC3(C)O)n2)cc1 (single isomer, unassigned) [Example 153b] |
| 10 to 100 | < 10 | 100 to 1000 | CC(C)NS(=O)(=O)c1ccc(Nc2ncc(C#N)c(OC3CCCCC3O)n2)cc1 (single isomer, unassigned) [Example 30a] |
| 100 to 1000 | 10 to 100 | 100 to 1000 | [2H]C([2H])([2H])NS(=O)(=O)c1ccc(Nc2ncc(CC)c(OC3CCCC3O)n2)cc1 (single isomer, unassigned) [Example 149b] |
| 100 to 1000 | 10 to 100 | ≥ 1000 | CCS(=O)(=O)N1CCC(Nc2ncc(C#N)c(OC3CCCC3(C)O)n2)CC1 (single isomer, unassigned) [Example 36a] |
| ≥ 1000 | 10 to 100 | ≥ 1000 | [2H]C([2H])([2H])NS(=O)(=O)c1ccc(Nc2ncc(CC)c(OC3CCOCC3O)n2)cc1 (single isomer, unassigned) [Example 151b] |
| < 10 | < 10 | 10 to 100 | [2H]C([2H])([2H])NS(=O)(=O)c1ccc(Nc2ncc(CC)c(OC3CCOCC3(C)O)n2)cc1 (single isomer, unassigned) [Example 152a] |
| 100 to 1000 | < 10 | 100 to 1000 | CCc1cnc(Nc2ccc(S(N)(=O)=O)cc2)nc1O[C@@H]1CCC[C@@H]1O (single isomer, unassigned) [Example 133b, cis-4-((5-ethyl-4-((2-hydroxycyclopentyl)oxy)pyrimidin-2-yl)amino)benzenesulfonamide] |
| 100 to 1000 | 10 to 100 | ≥ 1000 | CS(=O)(=O)N1CCC(Nc2ncc(Br)c(OC3CCCCCC3O)n2)CC1 (single isomer, unassigned) [Example 145a] |
| 100 to 1000 | 10 to 100 | ≥ 1000 | [2H]C([2H])([2H])NS(=O)(=O)c1ccc(Nc2ncc(C)c(OC3CCCC3O)n2)cc1 (single isomer, unassigned) [Example 148b] |
| 100 to 1000 | 10 to 100 | 100 to 1000 | CS(=O)(=O)N1CCC(Nc2ncc(C(F)(F)F)c(OC3CCCCCC3O)n2)CC1 (single isomer, unassigned) [Example 121b] |
| 10 to 100 | 10 to 100 | 100 to 1000 | CC1(O)CCCCC1Oc1nc(Nc2ccc(S(N)(=O)=O)cc2)ncc1C#N (single isomer, unassigned) [Example 24b] |
| 100 to 1000 | < 10 | 100 to 1000 | [2H]C1([2H])CC(O)C(Oc2nc(Nc3ccc(S(=O)(=O)NC([2H])([2H])[2H])cc3)ncc2C(F)(F)F)C1 (single isomer, unassigned) [Example 110b] |
| 100 to 1000 | 10 to 100 | ≥ 1000 | CC(C)CS(=O)(=O)N1CCC(Nc2ncc(C#N)c(OC3CCCC3(C)O)n2)CC1 (single isomer, unassigned) [Example 39b] |
| 100 to 1000 | < 10 | 100 to 1000 | NS(=O)(=O)c1ccc(Nc2ncc(C(F)(F)F)c(OC3CCCCC3O)n2)cc1 (single isomer, unassigned) [Example 111a] |
| 100 to 1000 | 10 to 100 | ≥ 1000 | N#Cc1cnc(Nc2ccc(S(=O)(=O)NC3CC(F)C3)cc2)nc1OC1CCCCC1O (single isomer, unassigned) [Example 31b] |
| 100 to 1000 | 10 to 100 | 100 to 1000 | C[C@@H]1C[C@@H](O)CCN1c1nc(Nc2ccc(S(N)(=O)=O)cc2)ncc1C#N [Example 76] |
| 100 to 1000 | 10 to 100 | ≥ 1000 | CC1(O)CCCC1Oc1nc(NC2CCN(S(=O)(=O)CC3CC3)CC2)ncc1C#N (single isomer, unassigned) [Example 38b] |
| 100 to 1000 | 10 to 100 | 100 to 1000 | N#Cc1cnc(Nc2ccc(S(N)(=O)=O)cc2)nc1OC1CCCC1CO (single isomer, unassigned) [Example 18a] |
| 100 to 1000 | 10 to 100 | 100 to 1000 | Cc1cnc(Nc2ccc(S(N)(=O)=O)cc2)nc1O[C@@H]1CCC[C@@H]1O (single isomer, unassigned) [Example 132b, cis-4-((4-((2-hydroxycyclopentyl)oxy)-5-methylpyrimidin-2-yl)amino)benzenesulfonamide] |
| 10 to 100 | < 10 | 100 to 1000 | CC(C)NS(=O)(=O)c1ccc(Nc2ncc(C#N)c(OC3CCCC3(C)O)n2)cc1 (single isomer, unassigned) [Example 35b] |
| < 10 | < 10 | 10 to 100 | CC1CCCC1Oc1nc(Nc2ccc(S(N)(=O)=O)cc2)ncc1C#N (stereo not drawn) [Example 11] |

| IC50 (CDK1/CyclinB) [nM] | IC50 (CDK2/CyclinE1) [nM] | IC50 (CDK9/CyclinT1) [nM] | Structure (SMILES) |
| --- | --- | --- | --- |
| 100 to 1000 | 10 to 100 | ≥ 1000 | CC1(O)CCCC1Oc1nc(NC2CCN(S(=O)(=O)CF)CC2)ncc1C#N (single isomer, unassigned) [Example 37b] |
| 100 to 1000 | 10 to 100 | 100 to 1000 | CC(C)NS(=O)(=O)c1ccc(Nc2ncc(C3CC3)c(O[C@@H]3CCC[C@@H]3O)n2)cc1 (single isomer, unassigned) [Example 134b, cis-4-((5-cyclopropyl-4-((2-hydroxycyclopentyl)oxy)pyrimidin-2-yl)amino)-N-isopropylbenzenesulfonamide] |
| 100 to 1000 | 10 to 100 | 100 to 1000 | [2H]C([2H])([2H])NS(=O)(=O)c1ccc(Nc2ncc(C(F)(F)F)c(OC3CCCC3O)n2)cc1 (single isomer, unassigned) [Example 109b] |
| 100 to 1000 | < 10 | ≥ 1000 | CNS(=O)(=O)c1ccc(Nc2ncc(C#N)c(OC3CCCC3(C)O)n2)cc1 (single isomer, unassigned) [Example 34b] |
| 10 to 100 | < 10 | 100 to 1000 | N#Cc1cnc(Nc2ccc(S(N)(=O)=O)cc2)nc1N1CCC[C@H](CO)C1 [Example 78] |
| 10 to 100 | < 10 | 100 to 1000 | CNS(=O)(=O)c1ccc(Nc2ncc(Cl)c(OC3CCCC3O)n2)cc1 (single isomer, unassigned) [Example 137b] |
| 100 to 1000 | < 10 | 100 to 1000 | NS(=O)(=O)c1ccc(Nc2ncc(C(F)(F)F)c(O[C@H]3[C@@H]4CC[C@@H](C4)[C@H]3O)n2)cc1 (single isomer, unassigned) [Example 113a] |
| 100 to 1000 | 10 to 100 | ≥ 1000 | Cn1cc(S(=O)(=O)N2CCC(Nc3ncc(Br)c(OC4CCCCC4O)n3)CC2)cn1 (single isomer, unassigned) [Example 144a] |
| 100 to 1000 | < 10 | 100 to 1000 | N#Cc1cnc(Nc2ccc(S(N)(=O)=O)cc2)nc1OC1CCCC(O)C1 (single isomer, unassigned) [Example 21a] |
| 10 to 100 | < 10 | 100 to 1000 | CC(C)NS(=O)(=O)c1ccc(Nc2ncc(C#N)c(OC3CCCC3)n2)cc1 [Example 28] |
| 10 to 100 | < 10 | 10 to 100 | NS(=O)(=O)c1ccc(Nc2ncc(C(F)(F)F)c(OC3CCCCCC3O)n2)cc1 (single isomer, unassigned) [Example 118b] |
| 100 to 1000 | 10 to 100 | 100 to 1000 | N#Cc1cnc(Nc2ccc(S(N)(=O)=O)cc2)nc1N1CCC[C@@H](CO)C1 [Example 79] |
| 100 to 1000 | < 10 | 100 to 1000 | CC(C)NS(=O)(=O)c1ccc(Nc2ncc(C#N)c(OC3CCC(O)C3)n2)cc1 (single isomer, unassigned) [Example 29a] |
| 10 to 100 | < 10 | 100 to 1000 | N#Cc1cnc(Nc2ccc(S(N)(=O)=O)cc2)nc1OC1CCCCCC1O (single isomer, unassigned) [Example 22b] |
| 10 to 100 | < 10 | 100 to 1000 | CC1(O)CCCC1Oc1nc(Nc2ccc(S(N)(=O)=O)cc2)ncc1C1CC1 (single isomer, unassigned) [Example 154b] |
| 10 to 100 | < 10 | 100 to 1000 | NS(=O)(=O)c1ccc(Nc2ncc(Cl)c(OC3CCCC3O)n2)cc1 (single isomer, unassigned) [Example 136b] |
| 10 to 100 | < 10 | 100 to 1000 | CC(C)NS(=O)(=O)c1ccc(Nc2ncc(C#N)c(OC3CCC(O)C3)n2)cc1 (single isomer, unassigned) [Example 29b] |
| 100 to 1000 | 10 to 100 | ≥ 1000 | CNS(=O)(=O)c1ccc(Nc2ncc(C(F)(F)F)c(OC3CCOCC3O)n2)cc1 (single isomer, unassigned) [Example 116b] |
| 10 to 100 | < 10 | 100 to 1000 | O=S(=O)(NC1CC1)c1ccc(Nc2ncc(C(F)(F)F)c(OC3CCCC3O)n2)cc1 (single isomer, unassigned) [Example 107b] |
| 100 to 1000 | 10 to 100 | 100 to 1000 | NS(=O)(=O)c1ccc(Nc2ncc(C(F)(F)F)c(OC3COCCC3O)n2)cc1 (single isomer, unassigned) [Example 115b] |
| 100 to 1000 | 10 to 100 | ≥ 1000 | C[C@]1(O)CCC[C@H]1Oc1nc(NC2CCN(S(C)(=O)=O)CC2)ncc1C#N (relative stereo) [Example 3a, cis-4-((2-hydroxy-2-methylcyclopentyl)oxy)-2-((1-(methylsulfonyl)piperidin-4-yl)amino)pyrimidine-5-carbonitrile] |
| 100 to 1000 | 10 to 100 | ≥ 1000 | N#Cc1cnc(Nc2ccc(S(=O)(=O)NC3CC(F)(F)C3)cc2)nc1OC1CCCCC1O (single isomer, unassigned) [Example 32b] |
